Data: patent publication US6667311B2, “Nitrogen substituted biaryl purine derivatives as potent antiproliferative agents” (Albany Molecular Research, Inc., priority 2001, dated 2003)
“Also recorded” adds a separate entry of the source. Like-named read-outs stand apart in the source and are kept apart here.

Columns and labels:
MALME-3M = assay: NCI growth inhibition, MALME-3M; type: cell-based, human; settings: Homo sapiens; MALME-3M (Melanoma)
NCI-H460 = assay: NCI growth inhibition, NCI-H460; type: cell-based, human; settings: Homo sapiens; NCI-H460 (Non-Small Cell Lung)
HeLa S-3 cells = assay: Inhibition of cell growth, HeLa cells (SRB); type: cell-based, human; settings: for IC50: Table 2, growth inhibition, 2 days, replicate experiments, read-out: CI50 HeLa Cells
Experimental: Growth inhibition (GI50) values were measured with HeLa S-3 cells selected for growth on plastic. […] One day later, a control plate was fixed by addition of TCA to 5%. After five rinses with tap water the plate was air dried and stored at 4° C. Test compounds were added to the remaining plates at 10-fold dilutions between 0.01 and 100 μM. Two days later all plates were fixed as described above. Cells were then stained by the addition of 100μl per well of 0.4% sulforhodamine B (SRB) in 1% acetic acid for 30 min at 4° C. Wells were then quickly rinsed 5×with acetic acid (1%) and allowed to air dry. The SRB was then solubilized by the addition of 100 μl per well of unbuffered 10 mM Tris base. Dye was quantified by measuring absorbance at 490 nm on a Molecular Devices kinetic microplate reader. Growth at each inhibitor concentration relative to the untreated control was calculated according to the following equation: percent growth=100×(T−To)/(C−To), where T was the average optical density (OD) of the test wells after 2 days of treatment, To was the average OD of the wells in the control plate on day 0 and C was the average OD of untreated wells. Plots of percent growth versus inhibitor concentration were used to determine the GI50.

[1] = tested on: Tumor Cells in Hollow Fibers; assay: NCI Hollow Fiber Assay; type: in vivo
CAKI-1 = assay: NCI growth inhibition, CAKI-1; type: cell-based, human; settings: Homo sapiens; CAKI-1 (Renal)
SK-OV-3 = assay: NCI growth inhibition, SK-OV-3; type: cell-based, human; settings: Homo sapiens; SK-OV-3 (Ovarian)
SK-MEL-5 = assay: NCI growth inhibition, SK-MEL-5; type: cell-based, human; settings: Homo sapiens; SK-MEL-5 (Melanoma)
CyclinA/cdk2 = CyclinA/cdk2 (Homo sapiens, UniProt P24941); assay: CyclinA/cdk2 protein kinase assay (histone H1 phosphorylation, immunopurified complex from HeLa); settings: read-out: IC50 CyclinA cdk2; Table 2; replicate experiments
CyclinB/cdk1 = biological target: T1, CyclinB/cdk1 (Homo sapiens, UniProt P06493); assay: CyclinB/cdk1 protein kinase assay (histone H1 phosphorylation, immunopurified complex from HeLa); type: biochemical; settings: Table 2; replicate experiments
T1 construct: Monoclonal antibody against cyclinB (GNS1) is added to the supernatant; endogenous in cells
Experimental: HeLa cells are blocked at the G1/S border by culturing in the presence of 2 mM thymidine for 20 h. The cells are then rinsed 3×in phosphate buffered saline and resuspended in regular medium. After 4 h of culture, the mitotic blocker, nocodazole is added to a final concentration of 75 ng/ml. […] The lysate is then clarified by centrifugation at 10,000×g for 10 min. The supernatant is collected and diluted 1:5 with Lysis Buffer. Monoclonal antibody against cyclinB (GNS1) is added to the supernatant to a final concentration of 5 μg/ml and shaken at 4° C. for 2 h. The immune complexes are then collected by the addition of 200 μl of protein agarose beads for 1 h. The beads are washed 4×in lysis buffer and 1×in kinase assay buffer.
Duplicate assays were performed at each concentration.

CyclinE/cdk2 = CyclinE/cdk2 (Homo sapiens, UniProt P24941); assay: CyclinE/cdk2 protein kinase assay (histone H1 phosphorylation, immunopurified complex from HeLa); settings: read-out: IC50 CyclinE cdk2; Table 2; replicate experiments

T1 sequence (P06493 whole entry): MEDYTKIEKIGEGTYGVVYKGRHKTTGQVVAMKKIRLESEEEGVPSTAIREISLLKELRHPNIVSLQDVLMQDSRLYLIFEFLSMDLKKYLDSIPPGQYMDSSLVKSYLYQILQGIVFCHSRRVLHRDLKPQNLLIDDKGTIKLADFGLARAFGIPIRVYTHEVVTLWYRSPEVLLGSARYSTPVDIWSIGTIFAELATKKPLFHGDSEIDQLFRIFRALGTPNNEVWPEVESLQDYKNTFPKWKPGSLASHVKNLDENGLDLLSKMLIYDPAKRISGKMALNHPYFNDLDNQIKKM
T1 sequence (P14635 whole entry partner): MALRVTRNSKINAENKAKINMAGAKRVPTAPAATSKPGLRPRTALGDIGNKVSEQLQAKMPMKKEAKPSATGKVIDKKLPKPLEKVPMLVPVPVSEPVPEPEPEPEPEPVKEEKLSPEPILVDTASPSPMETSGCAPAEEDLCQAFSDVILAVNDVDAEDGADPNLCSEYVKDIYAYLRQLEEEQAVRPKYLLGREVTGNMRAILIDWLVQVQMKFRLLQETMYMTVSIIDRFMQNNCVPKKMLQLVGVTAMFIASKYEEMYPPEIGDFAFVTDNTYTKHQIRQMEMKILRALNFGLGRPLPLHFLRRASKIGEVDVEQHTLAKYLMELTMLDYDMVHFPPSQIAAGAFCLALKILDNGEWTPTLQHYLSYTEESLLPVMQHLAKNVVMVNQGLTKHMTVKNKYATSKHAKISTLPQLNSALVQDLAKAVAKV

`CC(C)n1cnc2c(NCc3ccc(-c4ccsc4)cc3)nc(N[C@H]3CC[C@H](N)CC3)nc21` [Compound 12] gave a GI50 (MALME-3M) of 10 nM, a GI50 (NCI-H460) of 15 nM and an IC50 (HeLa S-3 cells) of 0.1 nM. For the same molecule, the “Cell Types Killed” value [1] was “H522, MDA-MB-435”, the GI50 (CAKI-1) was 38 nM and the GI50 (SK-OV-3) was 18 nM. It also gave a GI50 (SK-MEL-5) of 14 nM.
In the case of `CC[C@H](CO)Nc1nc(NCc2ccc(-c3ccccc3)cc2)c2ncn(C(C)C)c2n1` [Compound 73], the IC50 (HeLa S-3 cells) is reported as 500 nM.
In the case of `CC(C)n1cnc2c(NCc3ccc(-c4ccccn4)cc3)nc(N[C@H]3CC[C@H](N)CC3)nc21` [Compound 78], the “Cell Types Killed” value [1] is reported as “H23, H522, OVCAR3, SF29”.
For `CC(=O)N[C@H]1CC[C@H](Nc2nc(NCc3ccc(-c4ccccn4)cc3)c3ncn(C(C)C)c3n2)CC1` [Compound 79], the IC50 (CyclinA/cdk2) was 10000 nM.
`CC(C)n1cnc2c(NCc3ccc(-c4ccccc4)nc3)nc(N[C@H]3CC[C@H](N)CC3)nc21` [Compound 86] was tested, and the “Cell Types Killed” value [1] was “OVCAR 3, OVCAR 5, H522”.
`CC(C)n1cnc2c(NCc3ccc(-c4ccccn4)nc3)nc(N[C@H]3CC[C@H](N)CC3)nc21` [Compound 93] was tested, and the IC50 (HeLa S-3 cells) was 300 nM.
For `CC(=O)N[C@H]1CC[C@H](Nc2nc(NCc3ccc(-c4ccccn4)nc3)c3ncn(C(C)C)c3n2)CC1` [Compound 94], the “Cell Types Killed” value [1] was “COLO 205, OVCAR-3, H522”.
`CC(=O)N[C@H]1CC[C@H](Nc2nc(NCc3ccc(-c4ccc(C)cc4)cc3)c3ncn(C(C)C)c3n2)CC1` [Compound 97] showed an IC50 (CyclinB/cdk1) of 10000 nM.
For `CC(C)n1cnc2c(NCc3ccc(-c4cccnc4)cc3)nc(N[C@H]3CC[C@H](N)CC3)nc21` [Compound 103], the “Cell Types Killed” value [1] was “OVCAR 3,OVCAR 5,; also recorded: H522, MDA-MB-435, SF295”.
`CC(=O)N[C@@H](C)CNc1nc(NCc2ccc(-c3ccccc3)cc2)c2ncn(C(C)C)c2n1` [Compound 108] showed an IC50 (CyclinA/cdk2) of 10000 nM.
`CC(=O)N[C@H]1CC[C@H](Nc2nc(NCc3ccc(-c4cccc(Cl)c4)cc3)c3ncn(C(C)C)c3n2)CC1` [Compound 110] showed an IC50 (HeLa S-3 cells) of 20 nM.
`CC(C)n1cnc2c(NCc3ccc(-c4cccs4)cc3)nc(N[C@H]3CC[C@H](N)CC3)nc21` [Compound 111] showed an IC50 (CyclinA/cdk2) of 200 nM and an IC50 (CyclinE/cdk2) of 70 nM.
`CC(=O)N[C@H]1CC[C@H](Nc2nc(NCc3ccc(-c4ccsc4)cc3)c3ncn(C(C)C)c3n2)CC1` [Compound 113] was tested, and the “Cell Types Killed” value [1] was “H23, H522, OVCAR-3”.
In the case of `CC(=O)N[C@H]1CC[C@H](Nc2nc(NCc3ccc(-c4ccsc4)nc3)c3ncn(C(C)C)c3n2)CC1` [Compound 124], the “Cell Types Killed” value [1] is reported as “H23, H522, OVCAR-3,; also recorded: MDA-MB-435”.
For `CC[C@H](CO)Nc1nc(NCc2cccnc2)c2ncn(C(C)C)c2n1` [Compound 127, reference compound], the GI50 (HeLa S-3 cells; Homo sapiens, HeLa S3, Table 3, reference compounds in comparison) was 7000 to 15000 nM.
`CC(=O)N[C@H]1CC[C@H](Nc2nc(NCc3ccc(-c4cccc(C)c4)cc3)c3ncn(C(C)C)c3n2)CC1` [Compound 178] was tested, and the IC50 (HeLa S-3 cells; Homo sapiens, HeLa S3, 48 h) was 400 nM.
Molecule `COc1cccc(-c2ccc(CNc3nc(N[C@H]4CC[C@H](NC(C)=O)CC4)nc4c3ncn4C(C)C)cc2)c1` [Compound 180] has an IC50 (HeLa S-3 cells; Homo sapiens, HeLa S3, 48 h) of 400 nM.
With `CC(C)n1cnc2c(NCc3ccc(-c4ccccc4)cn3)nc(N[C@H]3CC[C@H](N)CC3)nc21` [Compound 229] the IC50 (HeLa S-3 cells; Homo sapiens, HeLa S3, 48 h) was 400 nM.
